Entries after “also recorded” stand apart in the source; their conditions may differ.
Tested on: P. aeruginosa strain PA14
Assay: Scarification skin infection mouse model
Format: in vivo, female CD-1 mice
Method: FIGS. 8A-8D. In vivo activity of Pol-CP—NH2 and its analogs. FIG. 8A. Schematic of the experimental design. Briefly, the back of mice was shaved and an abrasion was generated to damage the stratum corneum and the upper layer of the epidermis. Subsequently, an aliquot of 50 μL containing 5×10^7 CFU of P. aeruginosa in PBS was inoculated over each defined area. One day after the infection, peptides (4 μmol L^−1) were administered to the infected area. Animals were euthanized and the area of scarified skin was excised two and four days post-infection (FIG. 8B) homogenized using a bead beater for 20 minutes (25 Hz), and serially diluted for CFU quantification (****p<0.0001). FIG. 8C. Mouse body weight measurements throughout the experiment normalized by the body weight of non-infected mice. […] FIG. 8D. Longer experiment (four days) using a higher concentration (64 μmol L^−1) of peptides Pol-CP—NH2 and [Lys]'-Pol-CP—NH2 (****p<0.0001).
Scarification Skin Infection Mouse Model. P. aeruginosa strain PA14 was grown to an optical density at 600 nm (OD600) of 1 in tryptic soy broth (TSB) medium. […] Animals were euthanized and the area of scarified skin was excised two and four days post-infection, homogenized using a bead beater for 20 minutes (25 Hz), and serially diluted for CFU quantification. […] Statistical significance was assessed using a one-way ANOVA.

H-ILGTILKLLKSL-NH2 [Peptide 16, ILGTILKLLKSL-NH2]
in vivo anti-infective activity (CFU) (64 μmol L^−1, four days, listed as [Lys]^7-Pol-CP—NH2): nearly sterilized the infection; also recorded: virtually sterilizing abscess infections | in vivo antimicrobial activity (bacterial load, CFU) (single dose of 4 μmol L^−1 one day after infection): most active

From US20210347823A1, “METHODS OF PHYSICOCHEMICAL-GUIDED PEPTIDE DESIGN AND NOVEL PEPTIDES DERIVED THEREFROM” (Massachusetts Institute of Technology, priority 2018, published 2021)
